The values that follow are results of earlier work, collected in US20110092532A1 (priority 2009, published 2011).

Like-named read-outs stand apart in the source and are kept apart here.

By Tmax is commonly meant the time at which the peak concentration occurs.

One data set deals with healthy volunteers. The note with it: healthy male volunteers, no anti-emetic drugs.
For data set [1], the system named is patients with motor fluctuations.
The subject of the next data set is Dog. The settings on record: in vivo, sc.
The conditions of data set [2]: rats, after oral ingestion, portal vein not shunted.
Another data set relates to Cat. The settings on record: subcutaneous.
The mark [3] stands for this setting: SL apomorphine, three patients with motor fluctuations.

Regarding `CN1CCc2cccc3c2[C@H]1Cc1ccc(O)c(O)c1-3` [apomorphine], the “amount of intravenous apomorphine which will reliably induce emesis” value in the data set with healthy volunteers was 2.5 mg. For the same compound, under “intranasal route”, the Tmax was 23 min and the lag time is 2.8 min. Besides, for the setting “subcutaneous route”, the Tmax is listed as 18 min and the lag time is listed as 3.9 min. Moreover, in data set [1] (setting [3]), the duration of effect was 15 to 100 min and the latency to effect was 20 to 40 min. In addition, in data set [1] (one patient, SL apomorphine as adjunct with levodopa, during one month), the “"off" periods” value is “large decrease”. Further, the “Reversible Toxicity Seen” value in the data set on Dog was 36 to 71 mg/kg. For the same compound, the “tissue levels of apomorphine” value in data set [2] is listed as “not detectable”. The “Reversible Toxicity Seen” value in the data set with Cat is 136 mg/kg.
